Our source for the T/C values is PubChem BioAssay AID330 (DTP/NCI, 2004).

Structures are written as SMILES. Several values for one entry are separate records, joined by “and”; a condition that tells them apart may be missing. Identical values can stand only once. Toxic doses and inconclusive results are not listed. Square brackets hold non-standard residues; d marks the D form. Peptide text beside a SMILES is read from it. ξ: configuration not given here. ξLac(3-iPr) = CC(C)CC(O)C(=O)O; NMeV = CN[CH](C(=O)O)C(C)C; NMeA = CN[CH](C)C(=O)O; βAla = NCCC(=O)O

The subject of the assay is P388 leukemia ip, CD2F1 mice, survival T/C. The experiment in a line: NCI In Vivo Anticancer Drug Screen. Data for tumor model P388 Leukemia (intraperitoneal) in CD2F1 (CDF1) mice. The conditions noted are these: endpoint: median survival time, higher = longer survival. The procedure, abridged: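 Mice carrying the transplanted tumor received test compound or vehicle. Survival was recorded in each group, and the value is the treated-group measurement divided by that of the vehicle-treated control group.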

Where [1] appears, read: dose: 25.0 mg/kg/injection, schedule: Q01DX005 (ip), vehicle: Klucel (hydroxypropylcellulose) (HPC).
[2] abbreviates: dose: 50.0 mg/kg/injection, schedule: Q01DX005 (ip), vehicle: Klucel (hydroxypropylcellulose) (HPC).
Where [3] appears, read: dose: 100.0 mg/kg/injection, schedule: Q01DX005 (ip), vehicle: Klucel (hydroxypropylcellulose) (HPC).
[4] abbreviates: dose: 200.0 mg/kg/injection, schedule: Q01DX005 (ip), vehicle: Klucel (hydroxypropylcellulose) (HPC).
[5] abbreviates: dose: 25.0 mg/kg/injection, schedule: Q04DX003 (ip), vehicle: Klucel (hydroxypropylcellulose) (HPC).
Setting [6] is: dose: 50.0 mg/kg/injection, schedule: Q04DX003 (ip), vehicle: Klucel (hydroxypropylcellulose) (HPC).
The mark [7] stands for this setting: dose: 50.0 mg/kg/injection, schedule: Q01DX005 (ip), vehicle: saline with Tween-80.
The mark [8] stands for this setting: dose: 100.0 mg/kg/injection, schedule: Q01DX005 (ip), vehicle: saline with Tween-80.
Setting [9] is: dose: 200.0 mg/kg/injection, schedule: Q01DX005 (ip), vehicle: saline with Tween-80.

Regarding `COc1c(I)c2c(c([N+](=O)[O-])c1OC)C(=O)OC2C1c2c(cc3c(c2OC)OCO3)CCN1C` (centres undefined), the T/C is, setting by setting: under setting [1], 92 % of control; under setting [2], 101 % of control; under setting [3], 96 % of control; under setting [4], 91 % of control.

Take `O=C(O)CCNCCC(=O)O`: the T/C runs as follows: (dose: 50.0 mg/kg/injection, schedule: Q04DX003 (ip), vehicle: saline) 96 % of control; (dose: 100.0 mg/kg/injection, schedule: Q04DX003 (ip), vehicle: saline) 123 % of control and 97 % of control; (dose: 200.0 mg/kg/injection, schedule: Q04DX003 (ip), vehicle: saline) 100 % of control; (dose: 400.0 mg/kg/injection, schedule: Q04DX003 (ip), vehicle: saline) 95 % of control.

For the compound `COC(=O)C1(C)CCCC2(C)c3cc(OC)ccc3C3(CC12)SCCS3` (centres undefined), the T/C is, setting by setting: (dose: 10.0 mg/kg/injection, schedule: Q01DX009 (ip), vehicle: saline with Tween-80) 95 % of control; (dose: 20.0 mg/kg/injection, schedule: Q01DX009 (ip), vehicle: saline with Tween-80) 99 % of control; (dose: 40.0 mg/kg/injection, schedule: Q01DX009 (ip), vehicle: saline with Tween-80) 103 % of control.

For the compound `O=C1Nc2ccccc2C12Nc1ccccc1N2`, the T/C reads like this: under setting [5], 108 % of control; under setting [6], 95 % of control; (dose: 100.0 mg/kg/injection, schedule: Q04DX003 (ip), vehicle: Klucel (hydroxypropylcellulose) (HPC)) 97 % of control; (dose: 200.0 mg/kg/injection, schedule: Q04DX003 (ip), vehicle: Klucel (hydroxypropylcellulose) (HPC)) 90 % of control and 91 % of control.

With `C[Si](C)(C)n1nnn(-c2ccccc2)c1=O`, the T/C (dose: 50.0 mg/kg/injection, schedule: Q01DX009 (ip), vehicle: saline with Tween-80) was 99 % of control and 116 % of control; the T/C (dose: 100.0 mg/kg/injection, schedule: Q01DX009 (ip), vehicle: saline with Tween-80) is 112 % of control; the T/C (dose: 200.0 mg/kg/injection, schedule: Q01DX009 (ip), vehicle: saline with Tween-80) is 106 % of control.

Take `CCCCC(CC)C(=O)NCCCN(C)C` (centres undefined): the T/C is, setting by setting: (dose: 50.0 mg/kg/injection, schedule: Q01DX005 (ip), vehicle: saline) 99 % of control; (dose: 100.0 mg/kg/injection, schedule: Q01DX005 (ip), vehicle: saline) 99 % of control; (dose: 200.0 mg/kg/injection, schedule: Q01DX005 (ip), vehicle: saline) 94 % of control.

On to `COc1cccc2c(NCCCCCCCCNc3c4ccccc4nc4c(OC)cccc34)c3ccccc3nc12`, for which the T/C is 169 % of control (dose: 1.25 mg/kg/injection, schedule: Q01DX009 (ip), vehicle: lactic acid); 189 % of control (dose: 2.5 mg/kg/injection, schedule: Q01DX009 (ip), vehicle: lactic acid); 154 % of control (dose: 5.0 mg/kg/injection, schedule: Q01DX009 (ip), vehicle: other).

With `COC(=O)CCC(=S)N(C)C`, the T/C is 101 % of control under setting [2], 101 % of control under setting [3] and 103 % of control under setting [4].

For the compound `Cc1ccc(OP(=O)(Oc2ccc(C)cc2)Oc2ccc(C)cc2)cc1.Cc1ccc(OP(=O)(Oc2ccc(C)cc2)Oc2ccc(C)cc2)cc1.[Cl][Ni][Cl]`, the T/C is, setting by setting: (dose: 12.5 mg/kg/injection, schedule: Q04DX003 (ip), vehicle: Klucel (hydroxypropylcellulose) (HPC)) 102 % of control; under setting [5], 100 % of control and 109 % of control and 114 % of control; under setting [6], 100 % of control and 102 % of control.

On to `Nc1ncnc2c1ccn2Cc1c(F)cccc1Cl`, for which the T/C is, setting by setting: (dose: 50.0 mg/kg/injection, schedule: Q01DX005 (ip), vehicle: distilled water + alcohol) 100 % of control; (dose: 100.0 mg/kg/injection, schedule: Q01DX005 (ip), vehicle: distilled water + alcohol) 101 % of control; (dose: 200.0 mg/kg/injection, schedule: Q01DX005 (ip), vehicle: distilled water + alcohol) 105 % of control.

Consider `CCCCN1C=C(C)N(CCCC)CC1`, for which the T/C reads like this: (dose: 12.5 mg/kg/injection, schedule: Q01DX005 (ip), vehicle: saline with Tween-80) 109 % of control; (dose: 25.0 mg/kg/injection, schedule: Q01DX005 (ip), vehicle: saline with Tween-80) 114 % of control; under setting [7], 121 % of control and 123 % of control; under setting [8], 116 % of control.

`COC(=O)c1ccc(COc2ccc([N+](=O)[O-])cc2Cl)cc1`: the T/C is 100 % of control under setting [7]; 104 % of control under setting [8]; 105 % of control (dose: 100.0 mg/kg/injection, schedule: Q04DX003 (ip), vehicle: saline with Tween-80); 104 % of control under setting [9]; 105 % of control (dose: 200.0 mg/kg/injection, schedule: Q04DX003 (ip), vehicle: saline with Tween-80); 103 % of control (dose: 400.0 mg/kg/injection, schedule: Q04DX003 (ip), vehicle: saline with Tween-80).

Take `Cn1ncc(=O)c(Cl)c1Cl`: the T/C under setting [7] is 95 % of control, the T/C under setting [8] is 101 % of control and the T/C under setting [9] was 102 % of control.

On to `Cn1c2ccccc2c2nnc(N/N=C/c3cccnc3)nc21`, for which the T/C is 91 % of control (dose: 100.0 mg/kg/injection, schedule: Q04DX002 (ip), vehicle: saline with Tween-80); 86 % of control and 90 % of control (dose: 200.0 mg/kg/injection, schedule: Q04DX002 (ip), vehicle: saline with Tween-80); 99 % of control and 90 % of control and 95 % of control (dose: 400.0 mg/kg/injection, schedule: Q04DX002 (ip), vehicle: saline with Tween-80).

Take `CN(C)c1cc2nc3ccccc3nc2cc1O`: the T/C (dose: 50.0 mg/kg/injection, schedule: Q01DX009 (ip), vehicle: saline) is 95 % of control; the T/C (dose: 100.0 mg/kg/injection, schedule: Q01DX009 (ip), vehicle: saline) is 92 % of control; the T/C (dose: 200.0 mg/kg/injection, schedule: Q01DX009 (ip), vehicle: saline) was 100 % of control.

As for `CN(C)C1CC(C)(O)Cc2cc3c(c(O)c21)C(=O)c1c(O)cc2c(c1C3=O)OC1OC2(C)C(O)C(N(C)C)C1O` (centres undefined), the T/C was 103 % of control (dose: 3.12 mg/kg/injection, schedule: Q01DX009 (ip), vehicle: other); 120 % of control (dose: 6.25 mg/kg/injection, schedule: Q01DX009 (ip), vehicle: other); 153 % of control (dose: 50.0 mg/kg/injection, schedule: Q01DX009 (ip), vehicle: other).

Take `Cc1cc(C)cc(NCCC#N)c1`: the T/C runs as follows: (dose: 100.0 mg/kg/injection, schedule: Q04DX003 (ip), vehicle: other) 109 % of control; (dose: 200.0 mg/kg/injection, schedule: Q04DX003 (ip), vehicle: other) 109 % of control.

Regarding `Cc1cc(N/N=C/c2ccc3c(c2)OCO3)c2cc3c(cc2n1)OCO3`, the T/C was 104 % of control (dose: 3.12 mg/kg/injection, schedule: Q01DX005 (ip), vehicle: Klucel (hydroxypropylcellulose) (HPC)); 95 % of control (dose: 6.25 mg/kg/injection, schedule: Q01DX005 (ip), vehicle: Klucel (hydroxypropylcellulose) (HPC)); 102 % of control and 95 % of control (dose: 12.5 mg/kg/injection, schedule: Q01DX005 (ip), vehicle: Klucel (hydroxypropylcellulose) (HPC)); 107 % of control and 114 % of control under setting [1]; 103 % of control under setting [2].

Consider `COC1(c2ccc(C)cc2)OC12CCN(C)CC2` (centres undefined), for which the T/C runs as follows: under setting [7], 106 % of control; under setting [8], 95 % of control; under setting [9], 106 % of control.

Regarding `CSc1nc(N)c(-c2ccc([N+](=O)[O-])cc2)s1`, the T/C (dose: 60.0 mg/kg/injection, schedule: Q01DX005 (ip), vehicle: saline with Tween-80) was 97 % of control; the T/C (dose: 120.0 mg/kg/injection, schedule: Q01DX005 (ip), vehicle: saline with Tween-80) was 97 % of control; the T/C (dose: 240.0 mg/kg/injection, schedule: Q01DX005 (ip), vehicle: saline with Tween-80) was 97 % of control.

With `CCC(C)C1NC(=O)C2CCCN2C(=O)C(CC(C)C)OC(=O)CCNC(=O)C(C)N(C)C(=O)C(C(C)C)N(C)C1=O` (centres undefined) (cyclo([ξLac(3-iPr)]PI[NMeV][NMeA][βAla]); configuration not given here), the T/C was 115 % of control (dose: 0.63 mg/kg/injection, schedule: Q01DX009 (ip), vehicle: saline); 113 % of control (dose: 1.25 mg/kg/injection, schedule: Q01DX009 (ip), vehicle: saline); 117 % of control (dose: 2.5 mg/kg/injection, schedule: Q01DX009 (ip), vehicle: saline); 123 % of control (dose: 5.0 mg/kg/injection, schedule: Q01DX005 (ip), vehicle: saline with Tween-80); 120 % of control (dose: 5.0 mg/kg/injection, schedule: Q01DX009 (ip), vehicle: saline); 119 % of control (dose: 10.0 mg/kg/injection, schedule: Q01DX005 (ip), vehicle: saline with Tween-80).
